Results: patent publication US20250051347A1, “BIFUNCTIONAL CHIMERIC HETEROCYCLIC COMPOUND AND USE THEREOF AS ANDROGEN RECEPTOR DEGRADER” (Hinova Pharmaceuticals, Inc., priority 2021, published 2025)
Like-named read-outs stand apart in the source and are kept apart here.

Legend:
[1] = biological target: T1, androgen receptor (AR) splicing variant AR-v7 (Homo sapiens, UniProt P10275); assay: Degradation activity on androgen receptor splicing variant AR-v7 in 22RV1 cells (ELISA); type: cell-based; settings: AR-v7 degradation in 22RV1 cells, 48 h, class symbols
T1 construct: The degradation activity of compounds on AR-v7 in 22RV1 cells; host or cells: 22RV1 cells
T1 sequence (P10275 1-644 isoform P10275-3): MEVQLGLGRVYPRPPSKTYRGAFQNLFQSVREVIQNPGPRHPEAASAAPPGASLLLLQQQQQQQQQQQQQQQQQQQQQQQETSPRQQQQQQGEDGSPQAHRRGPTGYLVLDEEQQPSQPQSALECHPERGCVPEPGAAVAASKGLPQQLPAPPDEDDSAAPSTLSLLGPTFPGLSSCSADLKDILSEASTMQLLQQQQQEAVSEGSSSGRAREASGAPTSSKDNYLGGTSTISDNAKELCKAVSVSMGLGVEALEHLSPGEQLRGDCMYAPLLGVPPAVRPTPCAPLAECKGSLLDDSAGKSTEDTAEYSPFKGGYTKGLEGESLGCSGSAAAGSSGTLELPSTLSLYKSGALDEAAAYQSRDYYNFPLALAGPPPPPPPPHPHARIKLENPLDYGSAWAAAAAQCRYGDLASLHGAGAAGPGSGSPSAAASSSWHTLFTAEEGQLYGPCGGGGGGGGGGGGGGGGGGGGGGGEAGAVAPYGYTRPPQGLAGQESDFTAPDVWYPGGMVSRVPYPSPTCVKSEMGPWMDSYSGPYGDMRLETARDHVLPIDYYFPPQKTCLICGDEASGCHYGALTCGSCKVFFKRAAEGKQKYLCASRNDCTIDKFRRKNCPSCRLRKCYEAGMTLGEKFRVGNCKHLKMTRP

[2] = Homo sapiens, 22Rv1, 144 h, read-out: 22RV1 IC50 (nM), 22RV1 cells, 6 days culture, CCK-8, OD 450 nm
[3] = read-out: 22RV1 IC50, 22RV1 cells, 6 days culture, CCK-8, OD 450 nm

| Compound | DC50 [1] [nM] | IC50 (22RV1 cells; [2]) [nM] | IC50 (22RV1 cells; [3]) [nM] |
| --- | --- | --- | --- |
| CC(C)(c1ccc(Oc2cnc(-n3ccnn3)nc2)cc1)c1ccc(O[C@H]2C[C@H](Nc3ccc4c(c3)C(=O)N(C3CCC(=O)NC3=O)C4=O)C2)cc1 (some centres unmarked) [Example 476] | 11 to 100 | 14 | – |
| Cc1nnc(-c2ncc(Oc3ccc(C4(c5ccc(O[C@H]6C[C@H](Nc7ccc8c(c7)C(=O)N(C7CCC(=O)NC7=O)C8=O)C6)cc5)CC4)cc3)cn2)o1 (some centres unmarked) [Example 379, 2-(2,6-dioxopiperidin-3-yl)-5-(((1r,3r)-3-(4-(1-(4-((2-(5-methyl-1,3,4-oxadiazol-2-yl)pyrimidin-5-yl)oxy)phenyl)cyclopropyl)phenoxy)cyclobutyl)amino)isoindolin-1,3-dione] | 11 to 100 | 17 | – |
| CN(C)C1CN(c2nccc(COc3ccc(C(C)(C)c4ccc(O[C@H]5C[C@@H](Nc6ccc7c(c6)C(=O)N(C6CCC(=O)NC6=O)C7=O)C5)cc4)cc3)n2)C1 (some centres unmarked) [Example 400] | < 10 | 10 | – |
| CC(C)(c1ccc(OCCCNc2ccc3c(c2)C(=O)N(C2CCC(=O)NC2=O)C3=O)cc1)c1ccc(OCc2ccnc(NC3CC3)n2)cc1 (centres unmarked) [Example 444, 5-((3-(4-(2-(4-((2-(cyclopropylamino)pyrimidin-4-yl)methoxy)phenyl)propan-2-yl)phenoxy)propyl)amino)-2-(2,6-dioxopiperidin-3-yl)isoindolin-1,3-dione] | 11 to 100 | 62 | – |
| CC(C)(c1ccc(OCc2ccnc(-c3cn[nH]c3)n2)cc1)c1ccc(O[C@H]2C[C@@H](Nc3ccc4c(c3)C(=O)N(C3CCC(=O)NC3=O)C4=O)C2)cc1 (some centres unmarked) [Example 273] | < 10 | 10 | – |
| COc1nccc(COc2ccc(C3(c4ccc(O[C@H]5C[C@H](Nc6ccc7c(c6)C(=O)N(C6CCC(=O)NC6=O)C7=O)C5)cc4)CCC3)cc2)n1 (some centres unmarked) [Example 357, 2-(2,6-dioxopiperidin-3-yl)-5-(((1r,3r)-3-(4-(1-(4-((2-methoxypyrimidin-4-yl)methoxy)phenyl)cyclobutyl)phenoxy)cyclobutyl)amino)isoindolin-1,3-dione] | < 10 | 5 | – |
| CC(C)(c1ccc(OCCCNc2ccc3c(c2)C(=O)N(C2CCC(=O)NC2=O)C3=O)cc1)c1ccc(OCc2ccnc(-n3cncn3)n2)cc1 (centres unmarked) [Example 389, 5-((3-(4-(2-(4-((2-(1H-1,2,4-triazol-1-yl)pyrimidin-4-yl)methoxy)phenyl)propan-2-yl)phenoxy)propyl)amino)-2-(2,6-dioxopiperidin-3-yl)isoindol-1,3-dione] | 11 to 100 | 54 | – |
| Cc1nnc(-c2nccc(Oc3ccc(C(C)(C)c4ccc(O[C@H]5C[C@H](Nc6ccc7c(c6)C(=O)N(C6CCC(=O)NC6=O)C7=O)C5)cc4)cc3)n2)o1 (some centres unmarked) [Example 289] | < 10 | 7 | – |
| CC(=O)c1ccc(Oc2ccc(C(C)(C)c3ccc(O[C@H]4C[C@@H](Nc5ccc6c(c5)C(=O)N(C5CCC(=O)NC5=O)C6=O)C4)cc3)cc2)nn1 (some centres unmarked) [Example 523] | < 10 | 6 | – |
| CCC(CC)(c1ccc(Oc2ccc(C(C)=O)nn2)cc1)c1ccc(OC2CC(Nc3ccc4c(c3)C(=O)N(C3CCC(=O)NC3=O)C4=O)C2)cc1 (centres unmarked) [Example 431, 5-((1s,3s)-3-(4-(3-(4-((6-acetylpyridazine-3-yl)oxy)phenyl)pentan-3-yl)phenoxy)cyclobutyl)amino)-2-(2,6-dioxopyridin-3-yl)isoindol-1,3-dione] | < 10 | – | 4 |
| CC(C)(c1ccc(Oc2nncs2)cc1)c1ccc(O[C@H]2C[C@H](Nc3ccc4c(c3)C(=O)N(C3CCC(=O)NC3=O)C4=O)C2)cc1 (some centres unmarked) [Example 592] | < 10 | 8 | – |
| Cc1cncc(Oc2ccc(C(C)(C)c3ccc(O[C@H]4C[C@H](Nc5ccc6c(c5)C(=O)N(C5CCC(=O)NC5=O)C6=O)C4)cc3)cc2)n1 (some centres unmarked) [Example 536, 2-(2,6-dioxopiperidin-3-yl)-5-(((1r,3r)-3-(4-(4-((6-methylpyrazin-2-yl)oxy)phenyl)propan-2-yl)phenoxy)amino)isoindolin-1,3-dione] | < 10 | 5 | – |
| CC(C)(c1ccc(OCCCNc2ccc3c(c2)C(=O)N(C2CCC(=O)NC2=O)C3=O)cc1)c1ccc(OCc2ccnc(-n3ccnc3)n2)cc1 (centres unmarked) [Example 391, 5-((3-(4-(2-(4-((2-(1H-imidazol-1-yl)pyrimidin-4-yl)methoxy)phenyl)propan-2-yl)phenoxy)propyl)amino)-2-(2,6-dioxopiperidin-3-yl)isoindol-1,3-dione] | 11 to 100 | 56 | – |
| CC(c1nccc(COc2ccc(C(C)(C)c3ccc(O[C@H]4C[C@H](Nc5ccc6c(c5)C(=O)N(C5CCC(=O)NC5=O)C6=O)C4)cc3)cc2)n1)N1CCC1 (some centres unmarked) [Example 249] | < 10 | 6 | – |
| CC(C)(c1ccc(Oc2cc(F)cnc2-n2ccnn2)cc1)c1ccc(O[C@H]2C[C@H](Nc3ccc4c(c3)C(=O)N(C3CCC(=O)NC3=O)C4=O)C2)cc1 (some centres unmarked) [Example 517] | < 10 | – | 16 |
| CC(C)(c1ccc(Oc2cncc(-n3ccnn3)n2)cc1)c1ccc(O[C@H]2C[C@H](Nc3ccc4c(c3)C(=O)N(C3CCC(=O)NC3=O)C4=O)C2)cc1 (some centres unmarked) [Example 580] | < 10 | 14 | – |
| CCC(CC)(c1ccc(Oc2cnc(C(C)=O)cn2)cc1)c1ccc(O[C@H]2C[C@H](Nc3ccc4c(c3)C(=O)N(C3CCC(=O)NC3=O)C4=O)C2)cc1 (some centres unmarked) [Example 294] | < 10 | 4.2 | – |
| CC(C)(c1ccc(OCc2ccnc(N3CC4(COC4)C3)n2)c(F)c1)c1ccc(O[C@H]2C[C@@H](Nc3ccc4c(c3)C(=O)N(C3CCC(=O)NC3=O)C4=O)C2)c(F)c1 (some centres unmarked) [Example 366, 5-(((1s,3s)-3-(4-(2-(4-((2-(2-oxa-6-azaspiro[3.3]heptane-6-yl)pyrimidin-4-yl)methoxy)-3-fluorophenyl)isopropan-2-yl)-2-fluorophenoxy)cyclobutyl)amino)-2-(2,6-dioxopiperidin-3-yl)isoindolin-1,3-dione] | < 10 | 3 | – |
| CC(C)(c1ccc(OCc2nc(N3CC4(COC4)C3)ncc2F)cc1)c1ccc(O[C@H]2C[C@H](Nc3ccc4c(c3)C(=O)N(C3CCC(=O)NC3=O)C4=O)C2)cc1 (some centres unmarked) [Example 200] | < 10 | 12 | – |
| Cc1noc(-c2ccc(Oc3ccc(C(C)(C)c4ccc(O[C@H]5C[C@H](Nc6ccc7c(c6)C(=O)N(C6CCC(=O)NC6=O)C7=O)C5)cc4)cc3)nn2)n1 (some centres unmarked) [Example 331] | < 10 | 18 | – |
| CCC(CC)(c1ccc(Oc2cnc(C(C)=O)cn2)cc1)c1ccc(O[C@H]2C[C@@H](Nc3ccc4c(c3)C(=O)N(C3CCC(=O)NC3=O)C4=O)C2)cc1 (some centres unmarked) [Example 296] | < 10 | 7 | – |
| CC(C)(c1ccc(OCc2ccnc(-c3ncon3)n2)cc1)c1ccc(O[C@H]2C[C@H](Nc3ccc4c(c3)C(=O)N(C3CCC(=O)NC3=O)C4=O)C2)cc1 (some centres unmarked) [Example 281] | < 10 | 5 | – |
| CC(=O)c1nccc(Oc2ccc(C(C)(C)c3ccc(O[C@H]4C[C@H](Nc5ccc6c(c5)C(=O)N(C5CCC(=O)NC5=O)C6=O)C4)cc3)cc2)n1 (some centres unmarked) [Example 246] | < 10 | 5 | – |
| CNC(=O)c1nccc(COc2ccc(C(C)(C)c3ccc(O[C@H]4C[C@H](Nc5ccc6c(c5)C(=O)N(C5CCC(=O)NC5=O)C6=O)C4)cc3)cc2)n1 (some centres unmarked) [Example 186, 4-((4-(2-(4-((1r,3r)-3-((2-(2,6-dioxopiperidin-3-yl)-1,3-dioxoisoindolin-5-yl)amino)cyclobutyloxy)phenyl)propan-2-yl)phenoxy)methyl)-N-methylpyrimidin-2-carbonylamine] | 11 to 100 | 32 | – |
| CC(=O)c1cnc(Oc2ccc(C(C)(C)c3ccc(O[C@H]4C[C@H](Nc5ccc6c(c5)C(=O)N(C5CCC(=O)NC5=O)C6=O)C4)cc3)cc2)cn1 (some centres unmarked) [Example 596] | < 10 | 10 | – |
| CC(=O)c1ncc(Oc2ccc(C3(c4ccc(O[C@H]5C[C@H](Nc6ccc7c(c6)C(=O)N(C6CCC(=O)NC6=O)C7=O)C5)cc4)CC3)cc2)cn1 (some centres unmarked) [Example 378, 5-(((1r,3r)-3-(4-(1-(4-((2-acetylpyrimidin-5-yl)oxy)phenyl)cyclopropyl)phenoxy)cyclobutyl)amino)-2-(2,6-dioxopiperidin-3-yl)isoindolin-1,3-dione] | 11 to 100 | 7 | – |
| CCC(CC)(c1ccc(OCCCNc2ccc3c(c2)C(=O)N(C2CCC(=O)NC2=O)C3=O)cc1)c1ccc(OCc2ccnc(C(C)=O)n2)cc1 (centres unmarked) [Example 350, 5-((3-(4-(3-(4-((2-acetylpyrimidin-4-yl)methoxy)phenyl)pentan-3-yl)phenoxy)propyl)amino)-2-(2,6-dioxopiperidin-3-yl)isoindolin-1,3-dione] | 11 to 100 | 30 | – |
| CN1CCN(C(=O)c2noc(COc3ccc(C(C)(C)c4ccc(OCCCNc5ccc6c(c5)C(=O)N(C5CCC(=O)NC5=O)C6=O)cc4)cc3)n2)CC1 (centres unmarked) [Example 141] | 11 to 100 | 85 | – |
